Test results reported in patent US7091202B2, “4-arylspirocycloalkyl-2-aminopyrimidine carboxamide KCNQ potassium channel modulators” (Bristol-Myers Squibb Company, priority 2004, dated 2006).

The compounds below were run against T1, hQ23 (HEK-293 cell line stably transfected with one of the members of the KCNQ family) (Homo sapiens, UniProt O43525+O43526) (assay: Thallium flux assay for KCNQ channel blockers (FLIPR, BTC dye)). Conditions: hQ23 cells, thallium flux.
T1 construct: expressed in transfected cells; host or cells: HEK-293, stably transfected
Type: cell-based
In short: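 FLIPR thallium flux readout (BTC dye, 2 μM AM ester) in stably transfected KCNQ HEK-293 cells, chloride-free HEPES buffer pH 7.3, Tl2SO4 stimulus. IC50s were fitted with a single-site logistic equation across 10 points at 1:3 dilutions, defined as 50% of positive-control block; minimal active concentration meant signal ≥4 SD over DMSO controls.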

T1 sequence (O43526 whole entry): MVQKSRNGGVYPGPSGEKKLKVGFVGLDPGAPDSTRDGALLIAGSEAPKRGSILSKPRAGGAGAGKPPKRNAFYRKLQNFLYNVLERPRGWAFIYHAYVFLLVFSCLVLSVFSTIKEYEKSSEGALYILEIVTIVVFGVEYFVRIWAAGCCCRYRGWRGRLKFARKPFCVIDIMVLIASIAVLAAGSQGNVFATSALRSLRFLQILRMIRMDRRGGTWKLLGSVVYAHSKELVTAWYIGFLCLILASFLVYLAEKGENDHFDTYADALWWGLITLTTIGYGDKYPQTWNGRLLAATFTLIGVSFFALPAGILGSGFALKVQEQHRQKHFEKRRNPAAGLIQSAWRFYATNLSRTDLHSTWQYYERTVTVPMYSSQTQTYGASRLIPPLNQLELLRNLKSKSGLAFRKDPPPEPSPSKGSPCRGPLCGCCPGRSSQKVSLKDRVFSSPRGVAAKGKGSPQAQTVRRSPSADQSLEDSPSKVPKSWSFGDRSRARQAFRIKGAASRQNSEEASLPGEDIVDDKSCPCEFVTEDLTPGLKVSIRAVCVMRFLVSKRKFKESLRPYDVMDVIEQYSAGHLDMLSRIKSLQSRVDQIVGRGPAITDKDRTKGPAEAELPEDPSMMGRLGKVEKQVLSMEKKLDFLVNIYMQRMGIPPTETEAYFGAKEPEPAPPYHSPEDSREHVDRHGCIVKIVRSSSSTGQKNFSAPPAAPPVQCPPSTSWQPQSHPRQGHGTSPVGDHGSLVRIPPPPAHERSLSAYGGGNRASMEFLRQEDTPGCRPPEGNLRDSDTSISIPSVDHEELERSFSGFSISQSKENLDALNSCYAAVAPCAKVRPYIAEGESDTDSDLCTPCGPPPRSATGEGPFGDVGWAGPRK
T1 sequence (O43525 whole entry): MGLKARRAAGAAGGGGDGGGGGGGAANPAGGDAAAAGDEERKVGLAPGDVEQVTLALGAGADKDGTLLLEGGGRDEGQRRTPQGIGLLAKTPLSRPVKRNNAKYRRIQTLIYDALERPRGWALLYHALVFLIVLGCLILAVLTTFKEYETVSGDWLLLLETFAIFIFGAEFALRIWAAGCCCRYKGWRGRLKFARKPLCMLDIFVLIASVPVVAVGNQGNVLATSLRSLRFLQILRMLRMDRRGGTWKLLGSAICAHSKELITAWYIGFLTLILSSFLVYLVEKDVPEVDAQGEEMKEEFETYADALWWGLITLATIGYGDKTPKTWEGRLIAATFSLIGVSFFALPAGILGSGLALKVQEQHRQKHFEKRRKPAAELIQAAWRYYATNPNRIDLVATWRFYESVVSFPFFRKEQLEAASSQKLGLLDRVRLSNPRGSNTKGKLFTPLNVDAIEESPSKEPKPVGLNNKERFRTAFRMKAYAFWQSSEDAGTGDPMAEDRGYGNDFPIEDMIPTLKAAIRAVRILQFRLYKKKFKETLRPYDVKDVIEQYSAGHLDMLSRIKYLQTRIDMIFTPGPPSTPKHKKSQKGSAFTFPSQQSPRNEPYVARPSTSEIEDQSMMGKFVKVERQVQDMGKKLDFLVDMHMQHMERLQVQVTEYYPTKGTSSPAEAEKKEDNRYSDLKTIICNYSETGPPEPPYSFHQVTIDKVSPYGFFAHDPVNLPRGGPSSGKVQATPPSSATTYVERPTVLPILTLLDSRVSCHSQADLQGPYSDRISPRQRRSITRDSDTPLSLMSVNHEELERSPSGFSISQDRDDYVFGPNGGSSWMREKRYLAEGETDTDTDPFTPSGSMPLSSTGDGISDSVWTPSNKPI

Row | Structure (SMILES) | EC50
1 | CCC(C)Nc1ncc(C(=O)NC(C)c2ccc(F)cc2)c(C2(c3ccc(Cl)cc3)CCCC2)n1 (centres unmarked) [Example 200, 5-pyrimidinecarboxamide, 4-[1-(4-chlorophenyl)cyclopentyl]-N-[1-(4-fluorophenyl)ethyl]-2-[(1-methylpropyl)amino]-] | 911 nM
2 | CC(NC(=O)c1cnc(NC2CCCC2)nc1C1(c2ccc(Cl)cc2)CCCC1)c1ccc(F)cc1 (centres unmarked) [Example 201, 5-pyrimidinecarboxamide, 4-[1-(4-chlorophenyl)cyclopentyl]-2-(cyclopentylamino)-N-[1-(4-fluorophenyl)ethyl]-] | 592 nM
3 | CN1CCN(c2ncc(C(=O)NCc3ccc(C(F)(F)F)cc3)c(C3(c4ccc(Cl)cc4)CCCC3)n2)CC1 [Example 202, 5-pyrimidinecarboxamide, 4-[1-(4-chlorophenyl)cyclopentyl]-2-(4-methyl-1-piperazinyl)-N-[[4-(trifluoromethyl)phenyl]methyl]-] | 879 nM
4 | CC1CCC(Nc2ncc(C(=O)N(C)C3CCCCC3)c(C3(c4ccc(F)cc4)CCCC3)n2)CC1 (centres unmarked) [Example 207, 5-pyrimidinecarboxamide, N-cyclohexyl-4-[1-(4-fluorophenyl)cyclopentyl]-N-methyl-2-[(4-methylcyclohexyl)amino]-] | 873 nM
5 | CC1CCN(c2ncc(C(=O)N(C)C3CCCCC3)c(C3(c4ccc(F)cc4)CCCC3)n2)CC1 [Example 208, 5-pyrimidinecarboxamide, N-cyclohexyl-4-[1-(4-fluorophenyl)cyclopentyl]-N-methyl-2-(4-methyl-1-piperidinyl)-] | 558 nM
6 | CN(C(=O)c1cnc(NC2CCCC2)nc1C1(c2ccc(F)cc2)CCCC1)C1CCCCC1 [Example 209, 5-pyrimidinecarboxamide, N-cyclohexyl-2-(cyclopentylamino)-4-[1-(4-fluorophenyl)cyclopentyl]-N-methyl-] | 702 nM
7 | CCN(C(=O)c1cnc(N2CCCC2)nc1C1(c2ccc(F)cc2)CCCC1)C1CCCCC1 [Example 213, 5-pyrimidinecarboxamide, N-cyclohexyl-N-ethyl-4-[1-(4-fluorophenyl)cyclopentyl]-2-(1-pyrrolidinyl)-] | 680 nM
8 | CCN(C(=O)c1cnc(N2CCCC(C)C2)nc1C1(c2ccc(F)cc2)CCCC1)C1CCCCC1 (centres unmarked) [Example 214, 5-pyrimidinecarboxamide, N-cyclohexyl-N-ethyl-4-[1-(4-fluorophenyl)cyclopentyl]-2-(3-methyl-1-piperidinyl)-] | 575 nM
9 | CCN(C(=O)c1cnc(N2CCC(C)CC2)nc1C1(c2ccc(F)cc2)CCCC1)C1CCCCC1 [Example 215, 5-pyrimidinecarboxamide, N-cyclohexyl-N-ethyl-4-[1-(4-fluorophenyl)cyclopentyl]-2-(4-methyl-1-piperidinyl)-] | 922 nM
10 | CCC(C)Nc1ncc(C(=O)N(CC)C2CCCCC2)c(C2(c3ccc(F)cc3)CCCC2)n1 (centres unmarked) [Example 216, 5-pyrimidinecarboxamide, N-cyclohexyl-N-ethyl-4-[1-(4-fluorophenyl)cyclopentyl]-2-[(1-methylpropyl)amino]-] | 821 nM
11 | CCN(C(=O)c1cnc(NC2CCCC2)nc1C1(c2ccc(F)cc2)CCCC1)C1CCCCC1 [Example 217, 5-pyrimidinecarboxamide, N-cyclohexyl-2-(cyclopentylamino)-N-ethyl-4-[1-(4-fluorophenyl)cyclopentyl]-] | 482 nM
12 | CC1CCN(c2ncc(C(=O)N3CCCC(C)C3)c(C3(c4ccc(F)cc4)CCCC3)n2)CC1 (centres unmarked) [Example 218, piperidine, 1-[[4-[1-(4-fluorophenyl)cyclopentyl]-2-(4-methyl-1-piperidinyl)-5-pyrimidinyl]carbonyl]-3-methyl-] | 866 nM
13 | CCC(C)Nc1ncc(C(=O)N(C)CCc2ccccc2)c(C2(c3ccc(F)cc3)CCCC2)n1 (centres unmarked) [Example 223, 5-pyrimidinecarboxamide, 4-[1-(4-fluorophenyl)cyclopentyl]-N-methyl-2-[(1-methylpropyl)amino]-N-(2-phenylethyl)-] | 675 nM
14 | CCN(C)C(=O)c1cnc(N2CCCC(C)C2)nc1C1(c2ccc(F)cc2)CCCC1 (centres unmarked) [Example 226, 5-pyrimidinecarboxamide, N-ethyl-4-[1-(4-fluorophenyl)cyclopentyl]-N-methyl-2-(3-methyl-1-piperidinyl)-] | 505 nM
15 | CCN(C)C(=O)c1cnc(N2CCC(C)CC2)nc1C1(c2ccc(F)cc2)CCCC1 [Example 227, 5-pyrimidinecarboxamide, N-ethyl-4-[1-(4-fluorophenyl)cyclopentyl]-N-methyl-2-(4-methyl-1-piperidinyl)-] | 882 nM
16 | CCN(Cc1ccccc1)C(=O)c1cnc(NC2CCC(C)CC2)nc1C1(c2ccc(F)cc2)CCCC1 (centres unmarked) [Example 228, 5-pyrimidinecarboxamide, N-ethyl-4-[1-(4-fluorophenyl)cyclopentyl]-2-[(4-methylcyclohexyl)amino]-N-(phenylmethyl)-] | 637 nM

Stronger by EC50, values ahead:

Row | EC50 | Structure (SMILES)
17 | 91 nM | O=C(NCc1cc(F)cc(C(F)(F)F)c1)c1cnc(NC2CCCC2)nc1C1(c2ccc(Cl)cc2)CCCC1 [Example 196, 5-pyrimidinecarboxamide, 4-[1-(4-chlorophenyl)cyclopentyl]-2-(cyclopentylamino)-N-[[3-fluoro-5-(trifluoromethyl)phenyl]methyl]-]
18 | 233 nM | CC1CCC(Nc2ncc(C(=O)NC(C)c3ccc(F)cc3)c(C3(c4ccc(Cl)cc4)CCCC3)n2)CC1 (centres unmarked) [Example 197, 5-pyrimidinecarboxamide, 4-[1-(4-chlorophenyl)cyclopentyl]-N-[1-(4-fluorophenyl)ethyl]-2-[(4-methylcyclohexyl)amino]-]
19 | 124 nM | CC1CCCN(c2ncc(C(=O)NC(C)c3ccc(F)cc3)c(C3(c4ccc(Cl)cc4)CCCC3)n2)C1 (centres unmarked) [Example 198, 5-pyrimidinecarboxamide, 4-[1-(4-chlorophenyl)cyclopentyl]-N-[1-(4-fluorophenyl)ethyl]-2-(3-methyl-1-piperidinyl)-]
20 | 61 nM | CC1CCN(c2ncc(C(=O)NC(C)c3ccc(F)cc3)c(C3(c4ccc(Cl)cc4)CCCC3)n2)CC1 (centres unmarked) [Example 199, 5-pyrimidinecarboxamide, 4-[1-(4-chlorophenyl)cyclopentyl]-N-[1-(4-fluorophenyl)ethyl]-2-(4-methyl-1-piperidinyl)-]
21 | 32 nM | CC1CCN(c2ncc(C(=O)NCc3ccc(C(F)(F)F)cc3)c(C3(c4ccc(Cl)cc4)CCCC3)n2)CC1 [Example 203, 5-pyrimidinecarboxamide, 4-[1-(4-chlorophenyl)cyclopentyl]-2-(4-methyl-1-piperidinyl)-N-[[4-(trifluoromethyl)phenyl]methyl]-]
22 | 400 nM | CN1CCC(N(C)c2ncc(C(=O)NCc3ccc(C(F)(F)F)cc3)c(C3(c4ccc(Cl)cc4)CCCC3)n2)CC1 [Example 204, 5-pyrimidinecarboxamide, 4-[1-(4-chlorophenyl)cyclopentyl]-2-[methyl(1-methyl-4-piperidinyl)amino]-N-[[4-(trifluoromethyl)phenyl]methyl]-]
23 | 116 nM | CC1CCCN(c2ncc(C(=O)N(C)Cc3ccccc3)c(C3(c4ccc(F)cc4)CCCC3)n2)C1 (centres unmarked) [Example 205, 5-pyrimidinecarboxamide, 4-[1-(4-fluorophenyl)cyclopentyl]-N-methyl-2-(3-methyl-1-piperidinyl)-N-(phenylmethyl)-]
24 | 261 nM | CC1CCN(c2ncc(C(=O)N(C)Cc3ccccc3)c(C3(c4ccc(F)cc4)CCCC3)n2)CC1 [Example 206, 5-pyrimidinecarboxamide, 4-[1-(4-fluorophenyl)cyclopentyl]-N-methyl-2-(4-methyl-1-piperidinyl)-N-(phenylmethyl)-]
25 | 375 nM | CC1CCC(Nc2ncc(C(=O)N3CCc4ccccc4C3)c(C3(c4ccc(F)cc4)CCCC3)n2)CC1 (centres unmarked) [Example 210, isoquinoline, 2-[[4-[1-(4-fluorophenyl)cyclopentyl]-2-[(4-methylcyclohexyl)amino]-5-pyrimidinyl]carbonyl]-1,2,3,4-tetrahydro-]
26 | 272 nM | CC1CCCN(c2ncc(C(=O)N3CCc4ccccc4C3)c(C3(c4ccc(F)cc4)CCCC3)n2)C1 (centres unmarked) [Example 211, isoquinoline, 2-[[4-[1-(4-fluorophenyl)cyclopentyl]-2-(3-methyl-1-piperidinyl)-5-pyrimidinyl]carbonyl]-1,2,3,4-tetrahydro-]
27 | 237 nM | CC1CCN(c2ncc(C(=O)N3CCc4ccccc4C3)c(C3(c4ccc(F)cc4)CCCC3)n2)CC1 [Example 212, isoquinoline, 2-[[4-[1-(4-fluorophenyl)cyclopentyl]-2-(4-methyl-1-piperidinyl)-5-pyrimidinyl]carbonyl]-1,2,3,4-tetrahydro-]
28 | 334 nM | CC1CCC(Nc2ncc(C(=O)N(C)CCc3ccccc3)c(C3(c4ccc(F)cc4)CCCC3)n2)CC1 (centres unmarked) [Example 219, 5-pyrimidinecarboxamide, 4-[1-(4-fluorophenyl)cyclopentyl]-N-methyl-2-[(4-methylcyclohexyl)amino]-N-(2-phenylethyl)-]
29 | 169 nM | CN(CCc1ccccc1)C(=O)c1cnc(N2CCCC2)nc1C1(c2ccc(F)cc2)CCCC1 [Example 220, 5-pyrimidinecarboxamide, 4-[1-(4-fluorophenyl)cyclopentyl]-N-methyl-N-(2-phenylethyl)-2-(1-pyrrolidinyl)-]
30 | 356 nM | CC1CCCN(c2ncc(C(=O)N(C)CCc3ccccc3)c(C3(c4ccc(F)cc4)CCCC3)n2)C1 (centres unmarked) [Example 221, 5-pyrimidinecarboxamide, 4-[1-(4-fluorophenyl)cyclopentyl]-N-methyl-2-(3-methyl-1-piperidinyl)-N-(2-phenylethyl)-]
31 | 273 nM | CC1CCN(c2ncc(C(=O)N(C)CCc3ccccc3)c(C3(c4ccc(F)cc4)CCCC3)n2)CC1 [Example 222, 5-pyrimidinecarboxamide, 4-[1-(4-fluorophenyl)cyclopentyl]-N-methyl-2-(4-methyl-1-piperidinyl)-N-(2-phenylethyl)-]
32 | 452 nM | CCN(C)C(=O)c1cnc(NC2CCC(C)CC2)nc1C1(c2ccc(F)cc2)CCCC1 (centres unmarked) [Example 225, 5-pyrimidinecarboxamide, N-ethyl-4-[1-(4-fluorophenyl)cyclopentyl]-N-methyl-2-[(4-methylcyclohexyl)amino]-]
